In ChEMBL document CHEMBL3217607, “Discovery and structural modification of novel inhibitors of PTP1B inspired by the ACT fragment of scleritodermin A” (Medchemcomm, 2011):
pIC50: −log10 of the molar value.

Each compound was assayed against T1, Tyrosine-protein phosphatase non-receptor type 2 (Homo sapiens, UniProt P17706) (assay: Inhibition of TCPTP (unknown origin)).
T1 sequence (P17706 whole entry): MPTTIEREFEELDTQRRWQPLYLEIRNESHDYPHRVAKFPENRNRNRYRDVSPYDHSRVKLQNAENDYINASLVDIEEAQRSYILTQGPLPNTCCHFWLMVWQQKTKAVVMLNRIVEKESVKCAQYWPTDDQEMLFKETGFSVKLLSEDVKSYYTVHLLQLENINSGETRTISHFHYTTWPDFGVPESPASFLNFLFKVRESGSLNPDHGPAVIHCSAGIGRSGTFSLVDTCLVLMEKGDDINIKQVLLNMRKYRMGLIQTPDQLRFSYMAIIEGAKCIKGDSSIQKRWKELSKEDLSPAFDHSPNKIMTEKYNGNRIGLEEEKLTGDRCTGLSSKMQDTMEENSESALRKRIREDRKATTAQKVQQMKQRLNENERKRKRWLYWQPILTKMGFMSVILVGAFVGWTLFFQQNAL

| pIC50 | SMILES |
| --- | --- |
| 5.06 | C/C(=C/C(C)=C/c1csc([C@H](Cc2ccc(OCc3ccccc3)cc2)NC(=O)CCc2c[nH]c3ccccc23)n1)C(=O)OCC(=O)O |
| 5.34 | C/C(=C/C(C)=C/c1csc([C@H](Cc2ccc(OCc3ccccc3)cc2)NC(=O)[C@H](Cc2c[nH]c3ccccc23)NC(=O)OC(C)(C)C)n1)C(=O)OCC(=O)O |
| 4.89 | CCOC(=O)COC(=O)/C(C)=C\C(C)=C\c1csc([C@H](Cc2ccc(OCc3ccccc3)cc2)NC(=O)CCc2c[nH]c3ccccc23)n1 |

These compounds were tested against Receptor-type tyrosine-protein phosphatase F (Homo sapiens, UniProt P10586) (assay: Inhibition of LAR (unknown origin) using 3-O-Methylfluorescein phosphate as substrate preincubated for 3 mins followed by substrate addition).
Receptor-type tyrosine-protein phosphatase F, sequence (P10586 whole entry): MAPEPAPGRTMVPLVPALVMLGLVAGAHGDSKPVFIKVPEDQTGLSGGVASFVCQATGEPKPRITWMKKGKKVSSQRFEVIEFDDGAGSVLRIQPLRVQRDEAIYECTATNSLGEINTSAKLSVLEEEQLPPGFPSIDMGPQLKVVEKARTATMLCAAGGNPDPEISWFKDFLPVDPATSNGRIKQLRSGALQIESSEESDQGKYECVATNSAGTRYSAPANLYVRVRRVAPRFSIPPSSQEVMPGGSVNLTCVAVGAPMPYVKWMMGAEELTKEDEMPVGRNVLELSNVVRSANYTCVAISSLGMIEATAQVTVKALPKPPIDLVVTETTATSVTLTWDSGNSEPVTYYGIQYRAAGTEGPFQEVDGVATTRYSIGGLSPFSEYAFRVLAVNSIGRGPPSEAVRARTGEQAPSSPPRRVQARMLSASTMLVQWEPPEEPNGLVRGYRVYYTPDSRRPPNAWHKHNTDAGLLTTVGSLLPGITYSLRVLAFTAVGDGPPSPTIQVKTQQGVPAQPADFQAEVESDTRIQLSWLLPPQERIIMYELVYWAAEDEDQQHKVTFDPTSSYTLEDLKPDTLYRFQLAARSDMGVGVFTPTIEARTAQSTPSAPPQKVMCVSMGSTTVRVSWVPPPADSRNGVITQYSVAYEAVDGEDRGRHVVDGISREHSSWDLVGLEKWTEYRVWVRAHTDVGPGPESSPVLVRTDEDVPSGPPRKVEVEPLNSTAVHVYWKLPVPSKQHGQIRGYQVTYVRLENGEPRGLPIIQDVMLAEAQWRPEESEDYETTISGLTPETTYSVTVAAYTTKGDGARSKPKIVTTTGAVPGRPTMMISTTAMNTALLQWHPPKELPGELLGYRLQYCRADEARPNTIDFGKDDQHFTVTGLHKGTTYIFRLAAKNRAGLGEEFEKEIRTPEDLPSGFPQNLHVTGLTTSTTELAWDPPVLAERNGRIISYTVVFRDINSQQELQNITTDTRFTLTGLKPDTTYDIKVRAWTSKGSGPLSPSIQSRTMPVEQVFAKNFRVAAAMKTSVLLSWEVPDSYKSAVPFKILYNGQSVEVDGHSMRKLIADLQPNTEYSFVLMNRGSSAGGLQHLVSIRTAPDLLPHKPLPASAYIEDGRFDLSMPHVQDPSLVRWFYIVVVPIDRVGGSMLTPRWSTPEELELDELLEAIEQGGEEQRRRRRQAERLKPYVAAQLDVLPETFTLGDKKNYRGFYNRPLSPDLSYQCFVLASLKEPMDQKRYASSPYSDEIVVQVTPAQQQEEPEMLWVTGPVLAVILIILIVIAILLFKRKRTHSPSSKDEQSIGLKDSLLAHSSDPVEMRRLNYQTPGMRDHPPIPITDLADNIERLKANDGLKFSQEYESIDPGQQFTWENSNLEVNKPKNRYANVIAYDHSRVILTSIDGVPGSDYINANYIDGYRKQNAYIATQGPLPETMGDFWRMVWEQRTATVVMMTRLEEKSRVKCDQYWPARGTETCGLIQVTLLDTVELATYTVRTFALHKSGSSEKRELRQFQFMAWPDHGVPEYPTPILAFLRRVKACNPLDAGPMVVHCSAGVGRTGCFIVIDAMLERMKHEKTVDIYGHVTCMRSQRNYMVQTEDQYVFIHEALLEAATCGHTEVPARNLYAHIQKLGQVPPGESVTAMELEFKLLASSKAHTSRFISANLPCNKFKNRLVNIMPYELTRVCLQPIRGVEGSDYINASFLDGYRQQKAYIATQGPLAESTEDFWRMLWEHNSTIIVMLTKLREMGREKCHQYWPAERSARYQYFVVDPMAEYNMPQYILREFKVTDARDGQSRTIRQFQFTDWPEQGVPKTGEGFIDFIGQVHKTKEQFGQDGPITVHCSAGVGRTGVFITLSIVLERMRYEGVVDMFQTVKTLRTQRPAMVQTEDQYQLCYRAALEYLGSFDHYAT

| pIC50 | SMILES |
| --- | --- |
| < 4.70 | C/C(=C/C(C)=C/c1csc([C@H](Cc2ccc(OCc3ccccc3)cc2)NC(=O)CCc2c[nH]c3ccccc23)n1)C(=O)OCC(=O)O |
| < 4.70 | C/C(=C/C(C)=C/c1csc([C@H](Cc2ccc(OCc3ccccc3)cc2)NC(=O)[C@H](Cc2c[nH]c3ccccc23)NC(=O)OC(C)(C)C)n1)C(=O)OCC(=O)O |
| < 4.70 | CCOC(=O)COC(=O)/C(C)=C\C(C)=C\c1csc([C@H](Cc2ccc(OCc3ccccc3)cc2)NC(=O)CCc2c[nH]c3ccccc23)n1 |

The compounds below were run against Tyrosine-protein phosphatase non-receptor type 6 (Homo sapiens, UniProt P29350) (assay: Inhibition of SHP1 (unknown origin) using 3-O-Methylfluorescein phosphate as substrate preincubated for 3 mins followed by substrate addition).
Tyrosine-protein phosphatase non-receptor type 6, sequence (P29350 whole entry): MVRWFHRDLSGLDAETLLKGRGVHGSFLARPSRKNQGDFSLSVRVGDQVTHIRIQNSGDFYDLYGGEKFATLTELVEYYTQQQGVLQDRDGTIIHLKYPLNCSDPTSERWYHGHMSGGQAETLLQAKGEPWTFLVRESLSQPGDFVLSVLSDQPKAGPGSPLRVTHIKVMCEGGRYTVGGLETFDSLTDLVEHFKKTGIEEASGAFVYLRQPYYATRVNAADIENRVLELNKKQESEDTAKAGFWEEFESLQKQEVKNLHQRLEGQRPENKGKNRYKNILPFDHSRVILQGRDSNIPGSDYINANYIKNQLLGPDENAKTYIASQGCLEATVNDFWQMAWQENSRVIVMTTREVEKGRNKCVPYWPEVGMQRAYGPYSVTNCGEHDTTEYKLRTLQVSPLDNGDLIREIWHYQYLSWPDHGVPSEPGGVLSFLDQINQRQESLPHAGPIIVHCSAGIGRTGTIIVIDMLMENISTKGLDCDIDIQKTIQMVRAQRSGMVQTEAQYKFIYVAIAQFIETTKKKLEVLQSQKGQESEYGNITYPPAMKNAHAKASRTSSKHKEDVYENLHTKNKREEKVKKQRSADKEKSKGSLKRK

| pIC50 | SMILES |
| --- | --- |
| 4.82 | C/C(=C/C(C)=C/c1csc([C@H](Cc2ccc(OCc3ccccc3)cc2)NC(=O)CCc2c[nH]c3ccccc23)n1)C(=O)OCC(=O)O |
| < 4.70 | C/C(=C/C(C)=C/c1csc([C@H](Cc2ccc(OCc3ccccc3)cc2)NC(=O)[C@H](Cc2c[nH]c3ccccc23)NC(=O)OC(C)(C)C)n1)C(=O)OCC(=O)O |
| < 4.70 | CCOC(=O)COC(=O)/C(C)=C\C(C)=C\c1csc([C@H](Cc2ccc(OCc3ccccc3)cc2)NC(=O)CCc2c[nH]c3ccccc23)n1 |

Each compound was assayed against T2, Tyrosine-protein phosphatase non-receptor type 11 (Homo sapiens, UniProt Q06124) (assay: Inhibition of SHP2 (unknown origin) using 3-O-Methylfluorescein phosphate as substrate preincubated for 3 mins followed by substrate addition).
T2 sequence (Q06124 whole entry): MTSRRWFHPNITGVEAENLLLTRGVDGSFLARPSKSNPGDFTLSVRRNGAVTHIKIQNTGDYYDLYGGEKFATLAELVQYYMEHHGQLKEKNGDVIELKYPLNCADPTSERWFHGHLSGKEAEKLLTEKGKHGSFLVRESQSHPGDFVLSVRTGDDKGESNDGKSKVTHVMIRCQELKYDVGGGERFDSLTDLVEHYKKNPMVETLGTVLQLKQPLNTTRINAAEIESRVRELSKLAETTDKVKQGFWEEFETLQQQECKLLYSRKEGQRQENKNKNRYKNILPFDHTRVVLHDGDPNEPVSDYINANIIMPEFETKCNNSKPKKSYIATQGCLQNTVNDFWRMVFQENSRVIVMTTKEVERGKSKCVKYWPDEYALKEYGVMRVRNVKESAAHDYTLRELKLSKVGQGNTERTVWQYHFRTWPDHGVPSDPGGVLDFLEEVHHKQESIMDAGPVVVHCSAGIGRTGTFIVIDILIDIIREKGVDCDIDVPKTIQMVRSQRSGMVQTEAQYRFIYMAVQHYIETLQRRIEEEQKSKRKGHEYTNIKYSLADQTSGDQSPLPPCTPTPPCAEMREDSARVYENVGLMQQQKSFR

| pIC50 | SMILES |
| --- | --- |
| 4.72 | C/C(=C/C(C)=C/c1csc([C@H](Cc2ccc(OCc3ccccc3)cc2)NC(=O)CCc2c[nH]c3ccccc23)n1)C(=O)OCC(=O)O |
| < 4.70 | C/C(=C/C(C)=C/c1csc([C@H](Cc2ccc(OCc3ccccc3)cc2)NC(=O)[C@H](Cc2c[nH]c3ccccc23)NC(=O)OC(C)(C)C)n1)C(=O)OCC(=O)O |
| < 4.70 | CCOC(=O)COC(=O)/C(C)=C\C(C)=C\c1csc([C@H](Cc2ccc(OCc3ccccc3)cc2)NC(=O)CCc2c[nH]c3ccccc23)n1 |

Each compound was assayed against T3, Tyrosine-protein phosphatase non-receptor type 1 (Homo sapiens, UniProt P18031) (assay: Inhibition of GST-tagged PTP1B (unknown origin) using pNPP as substrate measured for 2 mins by spectrophotometry).
T3 sequence (P18031 whole entry): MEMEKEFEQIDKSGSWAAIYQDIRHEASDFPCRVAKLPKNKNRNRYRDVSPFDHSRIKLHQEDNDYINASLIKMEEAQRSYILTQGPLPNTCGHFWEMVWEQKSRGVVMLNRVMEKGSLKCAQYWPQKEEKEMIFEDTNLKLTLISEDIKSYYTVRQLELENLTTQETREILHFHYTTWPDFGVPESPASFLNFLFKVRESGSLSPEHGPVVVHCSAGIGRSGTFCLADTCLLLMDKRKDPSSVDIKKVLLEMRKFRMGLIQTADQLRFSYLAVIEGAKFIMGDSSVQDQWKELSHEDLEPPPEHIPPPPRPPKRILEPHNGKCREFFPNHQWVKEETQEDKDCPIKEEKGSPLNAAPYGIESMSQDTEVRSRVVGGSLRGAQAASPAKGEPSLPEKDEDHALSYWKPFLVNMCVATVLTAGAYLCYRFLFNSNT

| pIC50 | SMILES |
| --- | --- |
| 4.72 | CCOC(=O)/C(C)=C/C(C)=C/c1csc([C@H](Cc2ccc(OCc3ccccc3)cc2)NC(=O)C2CCCCC2)n1 |
| 4.94 | CCCCC(=O)N[C@@H](Cc1ccc(OCc2ccccc2)cc1)c1nc(/C=C(C)/C=C(/C)C(=O)OCC)cs1 |
| 4.62 | CCOC(=O)/C(C)=C/C(C)=C\c1csc([C@H](Cc2ccc(OCc3ccccc3)cc2)NC(=O)C2CCCCC2)n1 |
| < 4.40 | CCOC(=O)/C(C)=C/c1csc([C@H](Cc2ccc(OCc3ccccc3)cc2)NC(=O)C2CCCCC2)n1 |
| < 4.40 | CCOC(=O)c1csc([C@H](Cc2ccc(OCc3ccccc3)cc2)NC(=O)C2CCCCC2)n1 |
| 5.63 | C/C(=C/C(C)=C/c1csc([C@H](Cc2ccc(OCc3ccccc3)cc2)NC(=O)CCc2c[nH]c3ccccc23)n1)C(=O)OCC(=O)O |
| 5.80 | C/C(=C/C(C)=C/c1csc([C@H](Cc2ccc(OCc3ccccc3)cc2)NC(=O)[C@H](Cc2c[nH]c3ccccc23)NC(=O)OC(C)(C)C)n1)C(=O)OCC(=O)O |
| 5.27 | CCOC(=O)COC(=O)/C(C)=C\C(C)=C\c1csc([C@H](Cc2ccc(OCc3ccccc3)cc2)NC(=O)CCc2c[nH]c3ccccc23)n1 |

The compounds below were run against T4, M-phase inducer phosphatase 2 (Homo sapiens, UniProt P30305) (assay: Inhibition of CDC25B (unknown origin) using 3-O-Methylfluorescein phosphate as substrate preincubated for 3 mins followed by substrate addition).
T4 sequence (P30305 whole entry): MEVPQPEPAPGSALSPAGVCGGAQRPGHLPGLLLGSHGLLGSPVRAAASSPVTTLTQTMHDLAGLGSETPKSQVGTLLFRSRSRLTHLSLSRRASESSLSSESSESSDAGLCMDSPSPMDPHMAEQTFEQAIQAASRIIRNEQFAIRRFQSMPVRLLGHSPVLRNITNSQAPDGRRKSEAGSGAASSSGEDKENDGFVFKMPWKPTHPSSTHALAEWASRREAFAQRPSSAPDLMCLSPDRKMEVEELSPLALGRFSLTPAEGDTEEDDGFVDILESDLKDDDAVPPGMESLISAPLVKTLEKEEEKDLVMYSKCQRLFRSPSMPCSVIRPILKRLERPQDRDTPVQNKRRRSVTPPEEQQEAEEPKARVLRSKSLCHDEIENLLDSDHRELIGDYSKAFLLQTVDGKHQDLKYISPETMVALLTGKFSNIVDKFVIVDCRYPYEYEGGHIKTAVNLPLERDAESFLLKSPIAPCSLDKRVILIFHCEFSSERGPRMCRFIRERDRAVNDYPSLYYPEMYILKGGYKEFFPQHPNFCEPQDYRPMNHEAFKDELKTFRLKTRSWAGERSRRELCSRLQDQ

| pIC50 | SMILES |
| --- | --- |
| 5.32 | C/C(=C/C(C)=C/c1csc([C@H](Cc2ccc(OCc3ccccc3)cc2)NC(=O)CCc2c[nH]c3ccccc23)n1)C(=O)OCC(=O)O |
| 5.47 | C/C(=C/C(C)=C/c1csc([C@H](Cc2ccc(OCc3ccccc3)cc2)NC(=O)[C@H](Cc2c[nH]c3ccccc23)NC(=O)OC(C)(C)C)n1)C(=O)OCC(=O)O |
| 5.44 | CCOC(=O)COC(=O)/C(C)=C\C(C)=C\c1csc([C@H](Cc2ccc(OCc3ccccc3)cc2)NC(=O)CCc2c[nH]c3ccccc23)n1 |
